pIC50: −log10 of the molar value.
System: 362531-283-R-J2-PDC complex spheroid viability
Test: Anticancer human tumor 362531-283-R-J2-PDC patient-derived colon adenocarcinoma cell line growth inhibition [RAS]
Conditions: for viability, T/C: stronger effect = lower value; active = viability on the fitted dose curve at most 10% of control; inactive = the rest
Excerpt: RAS pathway inhibitors in Combinations in Complex Spheroids
A high-throughput screen of multi-cell type tumor spheroids was designed to identify active combinations of RAS pathway inhibitors and targeted small molecules. Complex spheroids include a stromal component modeled by human endothelial cells (HUVEC) and fibroblasts modeled by human mesenchymal stem cells (MSCs). The concentration ranges selected for each drug and investigational agent were based upon clinically achievable concentrations if the clinical Cmax of the agent was known.
Compounds. The drugs and investigational agents: abemaciclib (NSC768073), cobimetinib (NSC768068), divarasib (GDC6063, NSC841802), docetaxel (NSC628503), GDC-1971 (RLY-1971, NSC841576), gemcitabine (NSC613327), inavolisib (NSC800729), ipatasertib (NSC767898), KB-0742 (NSC834161), MRTX-1133 (NSC836407), osimertinib (NSC779217), RMC-4630 (NSC839698), RMC-6236 (NSC851965), RMC-6291 (NSC852671), Ro-3306 (NSC812927), sapanisertib (NSC764658), SN-38 (NSC673596), staurosporine (NSC755774), SY5609 (NSC837396), and tovorafenib (DAY101, NSC766906), were obtained from the National Cancer Institute (NCI) Developmental Therapeutics Program Chemical Repository. The FDA-approved anticancer drug set is available from the NCI Developmental Therapeutics Program. […] The stock solutions were prepared in dimethyl sulfoxide (DMSO, Sigma-Aldrich, St. Louis, MO, cat. D2650) at 800-fold the tested concentration and stored at -70 degrees C prior to their use. All drugs and investigational agents were tested over a range starting from a high concentration at or near the clinical Cmax and decreasing in half-log increments. If the clinical Cmax for an agent had not been determined, the highest concentration tested was 10 microM.
Cell Culture. All cells were maintained in an incubator at 37 degrees C and 5% CO2 with 95% humidity. The PDC lines were cultured according to standard operating procedures established by the NCI PDMR. All PDCs were thawed and cultured in Matrigel-coated flasks prepared with a working solution of 1X Ham's F-12 nutrient mix, without supplementation (Invitrogen, Waltham, MA, cat. 11765054), 100 U/mL penicillin-streptomycin (Invitrogen, cat. 15140122), and 2.5% Matrigel (Corning Inc., Corning, NY, cat. 354248) for the first three passages. The 362531-283-R-J2-PDC and 782815-120-R-J1-PDC lines were cultured in 6C/Colon 1B media, which includes advanced DMEM/F-12 (Thermo Fisher Scientific, cat. 12634028), 10 mM HEPES (Thermo Fisher Scientific, cat. 15630080), 1X GlutaMAX supplement (Thermo Fisher Scientific, cat. 35050061), 0.1 mg/mL primocin (InvivoGen, San Diego, CA, cat. ant-pm-2), 10% defined fetal bovine serum, heat inactivated (HyClone Laboratories Inc., Logan, UT, cat. SH30070.03HI), 50% L-WRN conditioned media (ATCC, cat. CRL-3276), 1.25 mM N-Acetyl-L-cysteine (Sigma-Aldrich, cat. A9165), 10 mM nicotinamide (Sigma-Aldrich, cat. N0636), 1X B-27 supplement (Thermo Fisher Scientific, cat. 17504044), 1X N-2 supplement (Thermo Fisher Scientific, cat. 17502048), 50 ng/mL human EGF (Thermo Fisher Scientific, cat. PHG0311), and 10 microM Y-27632 dihydrochloride (Tocris Bioscience, cat. 1254). The K12877-001-R-J1-PDC line was cultured in 6I media, which includes all 6C/Colon 1B media plus 10 ng/mL human FGF-10 (PeproTech, cat. 100-26), 1 ng/mL human FGF-2 (PeproTech, cat. 100-18B), 1 µM prostaglandin E2 (Tocris Bioscience, cat. 2296), […] hydrocortisone (Sigma-Aldrich, cat. H4001), and […] bovine insulin (Sigma-Aldrich, cat. I6634). The K86415-001-R-J1-PDC line was cultured in 6D media, which includes all 6C/Colon 1B media components minus the L-WRN conditioned media. The 485176-168-R4-J1-PDC was cultured in PANC media, which includes all 6C/Colon 1B media plus 100 ng/mL human FGF-10 (PeproTech, cat. 100-26), 500 nM SB-431542 (Selleckchem, cat. S1067), and 10 nM gastrin (Tocris Bioscience, cat. 3006). […]
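Note: spheroids exposed to the agents for 7 days before readout.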
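Throughout, for viability, T/C: luminescence viability as percent of DMSO vehicle control wells.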

CC1(O)CCCC1n1c(=O)c(C(F)F)cc2cnc(NC3CCN(S(C)(=O)=O)CC3)nc21 (centres undefined) + C=CC(=O)N1CCN(c2nc(OCC3CCCN3C)nc3c(F)c(-c4nc(N)cc(C)c4C(F)(F)F)c(Cl)cc23)C(C)C1
< 5.00: pIC50 (curve of first compound, second compound 0.00316 µM) | pIC50 (curve of first compound, second compound 0.01 µM) | pIC50 (curve of first compound, second compound 0.0316 µM) | pIC50 (curve of first compound, second compound 0.1 µM) | pIC50 (curve of first compound, second compound 0.316 µM) | pIC50 (curve of first compound, second compound 1 µM)
inactive: viability, T/C (second compound 0.00316 µM, first compound 0.0316 µM) 97.6% | viability, T/C (second compound 0.00316 µM, first compound 0.1 µM) 98% | viability, T/C (second compound 0.00316 µM, first compound 0.316 µM) 77.6% | viability, T/C (second compound 0.00316 µM, first compound 1 µM) 68.3% | viability, T/C (second compound 0.00316 µM, first compound 3.16 µM) 64.8% | viability, T/C (second compound 0.00316 µM, first compound 10 µM) 101% | viability, T/C (second compound 0.01 µM, first compound 0.0316 µM) 101% | viability, T/C (second compound 0.01 µM, first compound 0.1 µM) 97.1% | viability, T/C (second compound 0.01 µM, first compound 0.316 µM) 83.1% | viability, T/C (second compound 0.01 µM, first compound 1 µM) 75.5% | viability, T/C (second compound 0.01 µM, first compound 3.16 µM) 68.6% | viability, T/C (second compound 0.01 µM, first compound 10 µM) 65.7% | viability, T/C (second compound 0.0316 µM, first compound 0.0316 µM) 102% | viability, T/C (second compound 0.0316 µM, first compound 0.1 µM) 93.2% | viability, T/C (second compound 0.0316 µM, first compound 0.316 µM) 82.8% | viability, T/C (second compound 0.0316 µM, first compound 1 µM) 76.1% | viability, T/C (second compound 0.0316 µM, first compound 3.16 µM) 60% | viability, T/C (second compound 0.0316 µM, first compound 10 µM) 95.2% | viability, T/C (second compound 0.1 µM, first compound 0.0316 µM) 91.5% | viability, T/C (second compound 0.1 µM, first compound 0.1 µM) 95% | viability, T/C (second compound 0.1 µM, first compound 0.316 µM) 93.5% | viability, T/C (second compound 0.1 µM, first compound 1 µM) 75.2% | viability, T/C (second compound 0.1 µM, first compound 3.16 µM) 54.1% | viability, T/C (second compound 0.1 µM, first compound 10 µM) 89.7% | viability, T/C (second compound 0.316 µM, first compound 0.0316 µM) 97.2% | viability, T/C (second compound 0.316 µM, first compound 0.1 µM) 92.5% | viability, T/C (second compound 0.316 µM, first compound 0.316 µM) 89.2% | viability, T/C (second compound 0.316 µM, first compound 1 µM) 70.2% | viability, T/C (second compound 0.316 µM, first compound 3.16 µM) 64.4% | viability, T/C (second compound 0.316 µM, first compound 10 µM) 69.1% | viability, T/C (second compound 1 µM, first compound 0.0316 µM) 98.6% | viability, T/C (second compound 1 µM, first compound 0.1 µM) 104% | viability, T/C (second compound 1 µM, first compound 0.316 µM) 89.9% | viability, T/C (second compound 1 µM, first compound 1 µM) 77.4% | viability, T/C (second compound 1 µM, first compound 3.16 µM) 70.8% | viability, T/C (second compound 1 µM, first compound 10 µM) 53%

C=CC(=O)N1CCN(c2nc(OCC3CCCN3C)nc3c(F)c(-c4nc(N)cc(C)c4C(F)(F)F)c(Cl)cc23)C(C)C1 (centres undefined)
< 6.00: pIC50 (compound alone, run of 07/15/2024) | pIC50 (curve of compound)
inactive: viability, T/C (compound 0.00316 µM) 104% [middle of 12 runs] | viability, T/C (compound 0.01 µM) 108% [middle of 12 runs] | viability, T/C (compound 0.0316 µM) 102% [middle of 12 runs] | viability, T/C (compound 0.1 µM) 102% [middle of 12 runs] | viability, T/C (compound 0.316 µM) 102% [middle of 12 runs]

From PubChem BioAssay AID2060909 (Molecular Pharmacology Branch, DTP, NCI, 2025)
